{"source": "patent US20140057915A1", "about": "“KINASE INHIBITORS” (TOPIVERT PHARMA LIMITED, priority 2012, published 2014)", "key": {"d-U937 cells": {"tested_on": "d-U937 cells", "experiment": "Cell viability: MTT assay", "type": "cell-based, human", "details": "1 μg/mL", "method_in_brief": "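Differentiated U937 cells exposed to compound at 1 or 10 μg/mL, either 4 h in 5% FCS or 24 h in 10% FCS RPMI1640. MTT then added for 1 h, formazan dissolved in DMSO and read at 550 nm. Viability loss given as % versus 0.5% DMSO vehicle; apparent gains appear negative.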"}, "Syk": {"target": "Syk (Homo sapiens, UniProt P43405)", "experiment": "Enzyme binding assay (Kinomescan)", "details": "read-out: % Inhibition of kinase binding at 500 nM, Syk", "method": "(§1) Enzyme Binding Assays (Kinomescan)\n(§2) These assays were conducted by DiscoverX (formerly Ambit; San Diego, Calif.). The percentage inhibition produced by incubation with a test compound is calculated relative to the non-inhibited control."}, "GSK3α": {"target": "GSK3α (Homo sapiens, UniProt P49840)", "sequence (P49840 whole entry)": "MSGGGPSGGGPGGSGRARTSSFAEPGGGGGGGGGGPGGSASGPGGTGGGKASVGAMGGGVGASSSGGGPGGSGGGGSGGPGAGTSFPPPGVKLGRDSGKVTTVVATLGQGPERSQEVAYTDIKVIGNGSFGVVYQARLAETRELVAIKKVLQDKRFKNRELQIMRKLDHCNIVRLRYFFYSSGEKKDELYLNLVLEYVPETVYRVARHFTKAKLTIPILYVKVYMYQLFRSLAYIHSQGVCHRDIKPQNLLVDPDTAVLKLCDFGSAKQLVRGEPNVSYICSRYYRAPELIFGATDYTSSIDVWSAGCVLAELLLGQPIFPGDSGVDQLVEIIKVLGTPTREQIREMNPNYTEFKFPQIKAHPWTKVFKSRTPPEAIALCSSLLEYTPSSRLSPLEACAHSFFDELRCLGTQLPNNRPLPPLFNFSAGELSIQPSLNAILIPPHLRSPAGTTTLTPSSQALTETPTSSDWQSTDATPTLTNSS", "experiment": "Enzyme binding assay (Kinomescan)", "details": "read-out: % Inhibition of kinase binding at 500 nM, GSK3α", "method": "as §2"}, "[1]": {"tested_on": "TNFα release, d-U937 cells", "experiment": "LPS-induced TNFα release in d-U937 cells", "type": "cell-based", "details": "Homo sapiens, dU937; relative to 10 μg/mL BIRB796; Table 4c1; read-out: LPS Induced Release of Cytokine in d-U937 Cells, TNFα REC50", "method_in_brief": "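U937 cells differentiated with PMA (100 ng/mL, 48–72 hr), pre-treated with compound for 2 hr, then stimulated with E. coli LPS (0.1 μg/mL) for 4 hr. Supernatant cytokine measured by sandwich ELISA; inhibition versus vehicle control, REC50 from concentration-response curve.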"}, "p38 MAPKα": {"target": "p38 MAPKα (Homo sapiens, UniProt Q16539)", "sequence (Q16539 whole entry)": "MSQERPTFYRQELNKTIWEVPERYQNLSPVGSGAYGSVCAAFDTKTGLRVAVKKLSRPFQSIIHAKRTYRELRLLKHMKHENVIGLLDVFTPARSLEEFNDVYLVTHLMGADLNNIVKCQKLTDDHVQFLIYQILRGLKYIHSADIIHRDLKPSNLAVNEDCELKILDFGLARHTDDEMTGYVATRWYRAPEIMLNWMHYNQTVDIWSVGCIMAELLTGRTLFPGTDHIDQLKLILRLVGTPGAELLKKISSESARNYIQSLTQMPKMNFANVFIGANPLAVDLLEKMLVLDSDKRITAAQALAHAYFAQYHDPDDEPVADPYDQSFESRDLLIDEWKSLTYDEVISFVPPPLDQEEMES", "experiment": "Enzyme binding assay (Kinomescan)", "details": "read-out: % Inhibition of kinase binding at 500 nM, p38 MAPKα", "method": "as §1\n(§3) The kinase enzyme binding activities of compounds disclosed herein were determined using a proprietary assay which measures active site-directed competition binding to an immobilized ligand (Fabian, M. A. et al., Nature Biotechnol., 2005, 23:329-336). These assays were conducted by DiscoverX (formerly Ambit; San Diego, Calif.). The percentage inhibition produced by incubation with a test compound is calculated relative to the non-inhibited control."}, "B-Raf": {"target": "B-Raf (Homo sapiens, UniProt P15056)", "sequence (P15056 whole entry)": "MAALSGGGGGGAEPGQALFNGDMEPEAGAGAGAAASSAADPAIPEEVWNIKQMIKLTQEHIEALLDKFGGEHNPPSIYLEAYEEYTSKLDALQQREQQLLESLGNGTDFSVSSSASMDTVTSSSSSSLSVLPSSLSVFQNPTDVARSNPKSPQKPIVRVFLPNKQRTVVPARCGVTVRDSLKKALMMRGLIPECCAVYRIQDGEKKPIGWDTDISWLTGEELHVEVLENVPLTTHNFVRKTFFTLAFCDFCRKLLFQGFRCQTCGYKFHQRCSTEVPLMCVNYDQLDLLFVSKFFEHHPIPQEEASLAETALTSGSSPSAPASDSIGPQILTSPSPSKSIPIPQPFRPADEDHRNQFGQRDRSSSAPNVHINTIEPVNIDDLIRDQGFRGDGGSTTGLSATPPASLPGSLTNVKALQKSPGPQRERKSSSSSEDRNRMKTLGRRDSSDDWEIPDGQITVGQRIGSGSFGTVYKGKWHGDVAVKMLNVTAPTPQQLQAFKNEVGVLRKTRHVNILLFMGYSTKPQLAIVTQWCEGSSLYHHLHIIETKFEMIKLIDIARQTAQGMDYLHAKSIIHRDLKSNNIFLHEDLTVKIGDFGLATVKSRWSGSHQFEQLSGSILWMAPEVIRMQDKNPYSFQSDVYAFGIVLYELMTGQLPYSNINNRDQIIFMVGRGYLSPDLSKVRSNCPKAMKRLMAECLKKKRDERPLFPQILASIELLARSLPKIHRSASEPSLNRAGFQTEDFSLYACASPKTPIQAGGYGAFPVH", "experiment": "Enzyme binding assay (Kinomescan)", "details": "read-out: % Inhibition of kinase binding at 500 nM, B-Raf", "method": "as §1, §3"}, "[2]": {"tested_on": "ICAM-1 expression, BEAS2B cells", "experiment": "Poly I:C-induced ICAM-1 expression in BEAS2B cells", "type": "cell-based", "details": "Homo sapiens, BEAS-2B; read-out: Poly IC induced ICAM1 in BEAS2B, IC50", "method_in_brief": "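BEAS2B human bronchial epithelial cells pre-incubated 2 h with compound, then transfected with poly I:C (1 μg/mL) plus Oligofectamine. After 18 h, cell-surface ICAM-1 read by cell-based ELISA (A450–655), normalised to Crystal Violet cell number (A595); inhibition calculated against vehicle control at each concentration.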"}}, "data": [{"smiles": "COCC(=O)Nc1cc(Oc2ccc(NC(=O)Nc3cc(C(C)(C)C)nn3-c3ccc(C)cc3)c3ccccc23)ccn1", "note": "[Reference Compound, N-(4-(4-(3-(3-tert-butyl-1-p-tolyl-1H-pyrazol-5-yl)ureido)naphthalen-1-yloxy)pyridin-2-yl)-2-methoxyacetamide, reference compound]", "values": [{"measurement": "Cell viability at time point in d-U937 cells, 4 h", "setting": "d-U937 cells; 4 h", "result": "−ve (−ve and +ve indicate that the value is below and above respectively, the no significant effect threshold, defined as 30% inhibition at 1 μg/mL at the time point indicated)"}, {"measurement": "Cell viability at time point in d-U937 cells, 24 h", "setting": "d-U937 cells; 24 h", "result": "+ve (−ve and +ve indicate that the value is below and above respectively, the no significant effect threshold, defined as 30% inhibition at 1 μg/mL at the time point indicated)"}, {"measurement": "inhibition at 0.5 µM", "setting": "Syk", "result": 95, "unit": "%"}, {"measurement": "inhibition at 0.5 µM", "setting": "GSK3α", "result": 84, "unit": "%"}, {"measurement": "EC50", "setting": "[1]", "result": 0.13, "unit": "nM"}, {"measurement": "inhibition at 0.5 µM", "setting": "p38 MAPKα", "result": 100, "unit": "%"}, {"measurement": "inhibition at 0.5 µM", "setting": "B-Raf", "result": 70, "unit": "%"}, {"measurement": "IC50", "setting": "[2]", "result": 2.1, "unit": "nM"}]}]}
